Data from patent US20260297081A1, “COMPOUNDS AND METHODS OF TREATING CANCERS” (Cullgen Inc., priority 2023, published 2026).
One block for each compound: values may come before it.

Molecular target: CDK4 (Homo sapiens, UniProt P11802+Q16531)
Assay: CDK4 percentage degradation in Calu-1 cells (Table 6)
Type: cell-based
Parameters: Cells that express cyclin D1-3 and CDK4/6 proteins were treated with heterobifunctional compounds; endogenous in cells; host or cells: Calu-1
Settings: 16 hours; for inhibition at 0.04 µM: 40 nM; for inhibition at 0.2 µM: 200 nM
Method: Calu-(cells were treated with heterobifunctional compounds at 40 nM or 200 nM for 16 hours A: protein percentage degradation […]; B: protein percentage degradation <80%, and ≥50%; C: protein percentage degradation <50%, and ≥30%; D; protein percentage degradation […]; -, data not available.
Calu-1, T47D, MCF7, HCC1428 and other cells were cultured at 37° C. with 5% CO2 in RPMI 1640 or DMEM medium supplemented with 10% fetal bovine serum. Cells were authenticated using the short tandem repeat (STR) assays. Mycoplasma test results were negative. For palbo-resistant cell model, T47D cells were cultured long-term to resistance in the presence of 1 μM Palbociclib. Cells were deemed resistant when growing in the presence of Palbo at the same rate as parental cells.
Cultured cells were washed with cold PBS once and lysed in cold RIPA buffer supplemented with protease inhibitors and phosphatase inhibitors (Beyotime Biotechnology). The solutions were then incubated at 4 ? for 30 min with gentle agitation to fully lysed cells. Cell lysates were centrifuged at 13,000 rpm for 10 min at 4 ? and pellets were discarded. Total protein concentrations in the lysates were determined following BCA assays (Beyotime Biotechnology). Cell lysates were mixed with Laemmli loading buffer and heated at 99° C. for 5 min. Proteins were resolved on SDS-PAGE and visualized using Western ECL Substrate kits on a ChemiDoc MP Imaging system (Bio-Rad). Protein bands were quantitated using the Image Lab software provided by Bio-Rad.

CDK4, sequence (P11802 2-303 limits assumed): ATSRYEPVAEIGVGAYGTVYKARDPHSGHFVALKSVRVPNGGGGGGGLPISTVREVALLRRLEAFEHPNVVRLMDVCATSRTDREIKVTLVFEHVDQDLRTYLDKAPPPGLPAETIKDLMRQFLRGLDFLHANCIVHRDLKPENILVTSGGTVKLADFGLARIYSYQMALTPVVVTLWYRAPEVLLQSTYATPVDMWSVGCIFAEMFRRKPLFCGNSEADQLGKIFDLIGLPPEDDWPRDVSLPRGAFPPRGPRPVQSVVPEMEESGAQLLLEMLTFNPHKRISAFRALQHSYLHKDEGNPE
CDK4, sequence (P24385 whole entry partner): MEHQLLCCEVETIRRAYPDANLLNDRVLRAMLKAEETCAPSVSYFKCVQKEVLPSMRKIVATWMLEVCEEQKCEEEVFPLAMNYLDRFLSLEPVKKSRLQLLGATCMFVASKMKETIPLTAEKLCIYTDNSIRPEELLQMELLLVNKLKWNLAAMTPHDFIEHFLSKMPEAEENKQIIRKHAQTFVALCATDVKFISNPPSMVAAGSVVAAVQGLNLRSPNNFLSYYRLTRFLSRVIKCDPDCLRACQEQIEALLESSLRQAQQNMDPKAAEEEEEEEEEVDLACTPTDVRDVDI
CDK4, sequence (Q16531 2-1140 limits assumed): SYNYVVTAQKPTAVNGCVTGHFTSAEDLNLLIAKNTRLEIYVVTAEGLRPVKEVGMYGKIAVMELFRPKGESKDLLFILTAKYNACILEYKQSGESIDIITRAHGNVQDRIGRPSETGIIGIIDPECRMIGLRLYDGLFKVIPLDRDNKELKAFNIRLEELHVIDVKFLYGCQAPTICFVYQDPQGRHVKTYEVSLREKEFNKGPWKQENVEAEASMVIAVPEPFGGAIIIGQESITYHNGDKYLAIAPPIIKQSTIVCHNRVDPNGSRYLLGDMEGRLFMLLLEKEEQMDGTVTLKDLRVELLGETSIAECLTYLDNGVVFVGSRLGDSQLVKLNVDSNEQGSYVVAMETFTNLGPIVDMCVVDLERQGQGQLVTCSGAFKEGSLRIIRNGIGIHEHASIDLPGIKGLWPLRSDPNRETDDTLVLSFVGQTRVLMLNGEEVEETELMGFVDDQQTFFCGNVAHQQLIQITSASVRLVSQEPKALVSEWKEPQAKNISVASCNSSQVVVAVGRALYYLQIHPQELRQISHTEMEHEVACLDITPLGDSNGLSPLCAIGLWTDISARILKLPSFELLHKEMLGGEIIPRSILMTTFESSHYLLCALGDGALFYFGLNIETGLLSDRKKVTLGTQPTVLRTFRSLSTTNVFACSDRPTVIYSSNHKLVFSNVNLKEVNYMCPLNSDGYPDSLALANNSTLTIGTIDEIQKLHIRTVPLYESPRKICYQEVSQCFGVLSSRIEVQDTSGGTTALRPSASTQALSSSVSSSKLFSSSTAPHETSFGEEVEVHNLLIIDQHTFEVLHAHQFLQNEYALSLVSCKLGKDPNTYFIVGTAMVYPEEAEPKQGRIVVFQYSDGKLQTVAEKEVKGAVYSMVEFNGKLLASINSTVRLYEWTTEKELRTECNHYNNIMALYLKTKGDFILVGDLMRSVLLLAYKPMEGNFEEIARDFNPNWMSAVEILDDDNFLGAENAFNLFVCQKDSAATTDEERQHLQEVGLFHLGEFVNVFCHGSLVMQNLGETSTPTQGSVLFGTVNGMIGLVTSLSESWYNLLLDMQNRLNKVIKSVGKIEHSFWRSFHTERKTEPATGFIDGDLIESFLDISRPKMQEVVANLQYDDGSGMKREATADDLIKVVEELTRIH

Compound: CC(=O)c1c(C)c2cnc(Nc3ccc(N4CCN(CC(=O)NCCCNc5nc(C)ccc5C(=O)Nc5nc(C)c(C)s5)CC4)cn3)nc2n(C2CCCC2)c1=O [CPD-1, 2-((3-(2-(4-(6-((6-Acetyl-8-cyclopentyl-5-methyl-7-oxo-7,8-dihydropyrido[2,3-d]pyrimidin-2-yl)amino)pyridin-3-yl)piperazin-1-yl)acetamido)propyl)amino)-N-(4,5-dimethylthiazol-2-yl)-6-methylnicotinamide]
- inhibition at 0.04 µM: < 30%
- inhibition at 0.2 µM: 30 to 50%

Compound: COc1ccc(NC(=O)c2ccc(C)nc2NCCCCCCCNC(=O)CN2CCN(c3ccc(Nc4ncc5c(C)c(C(C)=O)c(=O)n(C6CCCC6)c5n4)nc3)CC2)nn1 [CPD-2, 2-((7-(2-(4-(6-((6-acetyl-8-cyclopentyl-5-methyl-7-oxo-7,8-dihydropyrido[2,3-d]pyrimidin-2-yl)amino)pyridin-3-yl)piperazin-1-yl)acetamido)heptyl)amino)-N-(6-methoxypyridazin-3-yl)-6-methylnicotinamide]
- inhibition at 0.04 µM: 50 to 80%
- inhibition at 0.2 µM: > 80%

Compound: CC(=O)c1c(C)c2cnc(Nc3ccc(N4CCN(CC(=O)NCCCCCNc5nc(C)ccc5C(=O)Nc5nc(C)c(C)s5)CC4)cn3)nc2n(C2CCCC2)c1=O [CPD-3, 2-((5-(2-(4-(6-((6-acetyl-8-cyclopentyl-5-methyl-7-oxo-7,8-dihydropyrido[2,3-d]pyrimidin-2-yl)amino)pyridin-3-yl)piperazin-1-yl)acetamido)pentyl)amino)-N-(4,5-dimethylthiazol-2-yl)-6-methylnicotinamide]
- inhibition at 0.04 µM: 50 to 80%
- inhibition at 0.2 µM: 50 to 80%

Compound: CNc1ccc(C(=O)Nc2ccc(C)c(C3CC3)n2)c(NCCCCCCCNC(=O)CN2CCN(c3ccc(Nc4ncc5c(C)c(C(C)=O)c(=O)n(C6CCCC6)c5n4)nc3)CC2)n1 [CPD-6, 2-((7-(2-(4-(6-((6-acetyl-8-cyclopentyl-5-methyl-7-oxo-7,8-dihydropyrido[2,3-d]pyrimidin-2-yl)amino)pyridin-3-yl)piperazin-1-yl)acetamido)heptyl)amino)-N-(6-cyclopropyl-5-methylpyridin-2-yl)-6-(methylamino)nicotinamide]
- inhibition at 0.04 µM: 50 to 80%

Compound: CNc1ccc(C(=O)Nc2ccc(C)c(C3CC3)n2)c(NCCCCCNC(=O)CN2CCN(c3ccc(Nc4ncc5c(C)c(C(C)=O)c(=O)n(C6CCCC6)c5n4)nc3)CC2)n1 [CPD-7, 2-((5-(2-(4-(6-((6-acetyl-8-cyclopentyl-5-methyl-7-oxo-7,8-dihydropyrido[2,3-d]pyrimidin-2-yl)amino)pyridin-3-yl)piperazin-1-yl)acetamido)pentyl)amino)-N-(6-cyclopropyl-5-methylpyridin-2-yl)-6-(methylamino)nicotinamide]
- inhibition at 0.04 µM: 50 to 80%

Compound: CC(=O)c1c(C)c2cnc(Nc3ccc(N4CCN(CC(=O)NCCCCCCCNc5nc(C)ccc5C(=O)Nc5ccc(C)c(C6CC6)n5)CC4)cn3)nc2n(C2CCCC2)c1=O [CPD-9, 2-((7-(2-(4-(6-((6-acetyl-8-cyclopentyl-5-methyl-7-oxo-7,8-dihydropyrido[2,3-d]pyrimidin-2-yl)amino)pyridin-3-yl)piperazin-1-yl)acetamido)heptyl)amino)-N-(6-cyclopropyl-5-methylpyridin-2-yl)-6-methylnicotinamide]
- inhibition at 0.04 µM: 50 to 80%
- inhibition at 0.2 µM: > 80%

Compound: CNc1ccc(C(=O)Nc2ccc(C(C)C)nn2)c(NCCCCCNC(=O)CN2CCN(c3ccc(Nc4ncc5c(C)c(C(C)=O)c(=O)n(C6CCCC6)c5n4)nc3)CC2)n1 [CPD-15, 2-((5-(2-(4-(6-((6-Acetyl-8-cyclopentyl-5-methyl-7-oxo-7,8-dihydropyrido[2,3-d]pyrimidin-2-yl)amino)pyridin-3-yl)piperazin-1-yl)acetamido)pentyl)amino)-N-(6-isopropylpyridazin-3-yl)-6-(methylamino)nicotinamide]
- inhibition at 0.04 µM: < 30%
- inhibition at 0.2 µM: < 30%

The next lines start with the values.

- inhibition at 0.04 µM: < 30%
- inhibition at 0.2 µM: 30 to 50%
Compound: CNc1ccc(C(=O)Nc2ccc(N3CCCC3)nn2)c(NCCCCCNC(=O)CN2CCN(c3ccc(Nc4ncc5c(C)c(C(C)=O)c(=O)n(C6CCCC6)c5n4)nc3)CC2)n1 [CPD-17, 2-((5-(2-(4-(6-((6-Acetyl-8-cyclopentyl-5-methyl-7-oxo-7,8-dihydropyrido[2,3-d]pyrimidin-2-yl)amino)pyridin-3-yl)piperazin-1-yl)acetamido)pentyl)amino)-6-(methylamino)-N-(6-(pyrrolidin-1-yl)pyridazin-3-yl)nicotinamide]

- inhibition at 0.04 µM: < 30%
Compound: CNc1ccc(C(=O)Nc2ccc(C(F)(F)F)nn2)c(NCCCCCNC(=O)CN2CCN(c3ccc(Nc4ncc5c(C)c(C(C)=O)c(=O)n(C6CCCC6)c5n4)nc3)CC2)n1 [CPD-19, 2-((5-(2-(4-(6-((6-Acetyl-8-cyclopentyl-5-methyl-7-oxo-7,8-dihydropyrido[2,3-d]pyrimidin-2-yl)amino)pyridin-3-yl)piperazin-1-yl)acetamido)pentyl)amino)-6-(methylamino)-N-(6-(trifluoromethyl)pyridazin-3-yl)nicotinamide]

- inhibition at 0.04 µM: < 30%
Compound: CNc1ccc(C(=O)Nc2ccc(Cl)cn2)c(NCCCCCNC(=O)CN2CCN(c3ccc(Nc4ncc5c(C)c(C(C)=O)c(=O)n(C6CCCC6)c5n4)nc3)CC2)n1 [CPD-20, 2-((5-(2-(4-(6-((6-acetyl-8-cyclopentyl-5-methyl-7-oxo-7,8-dihydropyrido[2,3-d]pyrimidin-2-yl)amino)pyridin-3-yl)piperazin-1-yl)acetamido)pentyl)amino)-N-(5-chloropyridin-2-yl)-6-(methylamino)nicotinamide]

- inhibition at 0.04 µM: < 30%
- inhibition at 0.2 µM: < 30%
Compound: CNc1ccc(C(=O)Nc2ccc(N(C)C)nn2)c(N(C)CCCCCNC(=O)CN2CCN(c3ccc(Nc4ncc5c(C)c(C(C)=O)c(=O)n(C6CCCC6)c5n4)nc3)CC2)n1 [CPD-23, 2-((5-(2-(4-(6-((6-Acetyl-8-cyclopentyl-5-methyl-7-oxo-7,8-dihydropyrido[2,3-d]pyrimidin-2-yl)amino)pyridin-3-yl)piperazin-1-yl)acetamido)pentyl)(methyl)amino)-N-(6-(dimethylamino)pyridazin-3-yl)-6-(methylamino)nicotinamide]

- inhibition at 0.04 µM: < 30%
- inhibition at 0.2 µM: 50 to 80%
Compound: CNc1ccc(C(=O)Nc2ccc(N(C)C)nn2)c(Nc2cnn(CCNC(=O)CN3CCN(c4ccc(Nc5ncc6c(C)c(C(C)=O)c(=O)n(C7CCCC7)c6n5)nc4)CC3)n2)n1 [CPD-25, 2-((2-(2-(2-(4-(6-((6-Acetyl-8-cyclopentyl-5-methyl-7-oxo-7,8-dihydropyrido[2,3-d]pyrimidin-2-yl)amino)pyridin-3-yl)piperazin-1-yl)acetamido)ethyl)-2H-1,2,3-triazol-4-yl)amino)-N-(6-(dimethylamino)pyridazin-3-yl)-6-(methylamino)nicotinamide]

- inhibition at 0.04 µM: < 30%
- inhibition at 0.2 µM: 50 to 80%
Compound: CNc1ccc(C(=O)Nc2ccc(C3CC3)nn2)c(NCCCCCNC(=O)CN2CCN(c3ccc(Nc4ncc5c(C)c(C(C)=O)c(=O)n(C6CCCC6)c5n4)nc3)CC2)n1 [CPD-31, 2-((5-(2-(4-(6-((6-Acetyl-8-cyclopentyl-5-methyl-7-oxo-7,8-dihydropyrido[2,3-d]pyrimidin-2-yl)amino)pyridin-3-yl)piperazin-1-yl)acetamido)pentyl)amino)-N-(6-cyclopropylpyridazin-3-yl)-6-(methylamino)nicotinamide]

- inhibition at 0.04 µM: < 30%
- inhibition at 0.2 µM: < 30%
Compound: CNc1ccc(C(=O)Nc2ccc3c(cnn3C)n2)c(NCCCCCNC(=O)CN2CCN(c3ccc(Nc4ncc5c(C)c(C(C)=O)c(=O)n(C6CCCC6)c5n4)nc3)CC2)n1 [CPD-32]

- inhibition at 0.04 µM: 30 to 50%
- inhibition at 0.2 µM: 50 to 80%
Compound: CNc1ccc(C(=O)Nc2ccc(N(C)C)nn2)c(NCCCCC(=O)NCCN2CCN(c3ccc(Nc4ncc5c(C)c(C(C)=O)c(=O)n(C6CCCC6)c5n4)nc3)CC2)n1 [CPD-36, 2-((5-((2-(4-(6-((6-Acetyl-8-cyclopentyl-5-methyl-7-oxo-7,8-dihydropyrido[2,3-d]pyrimidin-2-yl)amino)pyridin-3-yl)piperazin-1-yl)ethyl)amino)-5-oxopentyl)amino)-N-(6-(dimethylamino)pyridazin-3-yl)-6-(methylamino)nicotinamide]

- inhibition at 0.04 µM: 50 to 80%
- inhibition at 0.2 µM: 50 to 80%
Compound: CNc1ccc(C(=O)Nc2ccc3c(n2)CCC3)c(NCCCCCNC(=O)CN2CCN(c3ccc(Nc4ncc5c(C)c(C(C)=O)c(=O)n(C6CCCC6)c5n4)nc3)CC2)n1 [CPD-40, 2-((5-(2-(4-(6-((6-Acetyl-8-cyclopentyl-5-methyl-7-oxo-7,8-dihydropyrido[2,3-d]pyrimidin-2-yl)amino)pyridin-3-yl)piperazin-1-yl)acetamido)pentyl)amino)-N-(6,7-dihydro-5H-cyclopenta[b]pyridin-2-yl)-6-(methylamino)nicotinamide]

- inhibition at 0.04 µM: 30 to 50%
- inhibition at 0.2 µM: 50 to 80%
Compound: CNc1ccc(C(=O)Nc2ccc(N(C)C)nn2)c(NCCC2CC(NC(=O)CN3CCN(c4ccc(Nc5ncc6c(C)c(C(C)=O)c(=O)n(C7CCCC7)c6n5)nc4)CC3)C2)n1 (stereo not drawn) [CPD-41, 2-((2-(3-(2-(4-(6-((6-Acetyl-8-cyclopentyl-5-methyl-7-oxo-7,8-dihydropyrido[2,3-d]pyrimidin-2-yl)amino)pyridin-3-yl)piperazin-1-yl)acetamido)cyclobutyl)ethyl)amino)-N-(6-(dimethylamino)pyridazin-3-yl)-6-(methylamino)nicotinamide]
